Test results as given in patent publication US10752581B2, “4-((2-hydroxy-3-methoxybenzyl)amino)benzenesulfonamide derivatives as potent and selective inhibitors of 12-lipoxygenase” (Eastern Virginia Medical School, priority 2013, dated 2020).
Marks after values point to notes of the source that are not given here.

Legend:
[1] = test system: Caco-2; test: Caco-2 assay permeability; assay type: in vitro ADME; conditions: A→B
[2] = Microsomal stability (mouse); assay type: in vitro ADME
[3] = test system: FcγRIIa-stimulated platelets; test: Syk phosphorylation after FcγRIIa cross-linking; assay type: cell-based, human; conditions: ML355 (20 μM)
Description: (§1) FIGS. 15A-15B show the role of 12-LOX in regulating the FcγRIIa signaling complex. Washed human platelets were pre-treated with ML355 (20 μM) or vehicle control prior to IV.3 and GAM stimulation. (FIG. 15A) Immunoprecipitation of FcγRIIa at 15, 30, and 60 seconds post crosslinking and measured for phosphorylation via Western blot. (FIG. 15B) Platelets were lysed following FcγRIIa cross-linking in the presence of ML355 or DMSO were immunoblotted for active (pY323) and total Syk.
Phosphorylation of FcγRIIa results in recruitment and activation of the tyrosine kinase Syk which is crucial for the formation of the LAT signalosome. The phosphorylation of Syk was measured following FcγRIIa stimulation of platelets in the presence or absence of ML355. The degree of Syk phosphorylation in response to FcγRIIa cross-linking in the presence of ML355 was varied in the subjects tested and may be due to inter-individual variability. […] To assess if 12-LOX regulates PLCy2 activation downstream of FcγRIIa, PLCy2 phosphorylation was measured in washed human platelets in the presence or absence of ML355. Platelets stimulated by FcγRIIa antibody cross-linking were phosphorylated within 15 seconds following stimulation. […]

[4] = test system: FcγRIIa-stimulated platelets; test: PLCγ2 phosphorylation after FcγRIIa cross-linking; assay type: cell-based, human; conditions: ML355 (20 μM); 15 and 30 seconds
Description: (§2) FcγRIIa-mediated platelet activation: FcγRIIa-mediated platelet activation was initiated by two distinct models; either 1) FcγRIIa antibody cross-linking or 2) CD9 monoclonal antibody stimulation. To cross-link FcγRIIa, washed platelets were incubated with IV.3, an FcγRIIa mouse monoclonal antibody, for one minute followed by the addition of a goat anti-mouse (GAM) IgG antibody to cross-link FcγRIIa. The concentration of FcγRIIa cross-linking antibodies used for each experiment is indicated in the text. Alternatively, washed human platelets were stimulated with an anti-CD9 monoclonal antibody to activate FcγRIIa mediated signaling. Due to inter-individual variability in anti-CD9 response, a range of anti-CD9 concentration (0.25-1 μg/ml) was used to achieve an aggregation of EC80. In studies using the 12-LOX inhibitor (ML355), washed platelets were incubated with either ML355 (20 μM), or DMSO (vehicle control) for 15 minutes prior to FcγRIIa stimulation.
PLCγ2 phosphorylation: Washed human platelets were adjusted to 5×10^8 platelets/mL and stimulated in an aggregometer by antibody cross-linking of FcγRIIa and lysed at designated times with 5× reducing buffer to stop the reaction. Samples were separated on a 7.5% SDS-PAGE gel. Antibodies to PLCy2 and phospho-Y759 PLCy2, a marker of PLCy2 activation, were used to evaluate the relative levels of total and active PLCy2, respectively.

[5] = test system: human primary donor islets; test: Human Islet (12-HETE Inhibition) Assay; assay type: cell-based; conditions: 10 μM
[6] = in vivo; conditions: male, CD1, mouse
[7] = test system: FcγRIIa-stimulated platelets; test: αIIbβ3 activation after FcγRIIa stimulation; assay type: cell-based, human; conditions: ML355 pre-treatment; IV.3 + GAM
From the text: (§3) Preparation of washed human platelets: Prior to blood collection written informed consent was obtained from all volunteers. Washed platelets were isolated from the blood of healthy volunteers as previously described (14). Washed platelets were resuspended in tyrodes buffer at 3.0×10^8 platelets/mL unless otherwise indicated.
as §2, with “Due to inter-individual variability in anti-CD9 response, a range of anti-CD9 concentration (0.25-1 μg/ml) was used to achieve an aggregation of EC80. In studies using the 12-LOX inhibitor (ML355), washed platelets were incubated with either ML355 (20 μM), or DMSO (vehicle control) for 15 minutes prior to FcγRIIa stimulation.” left out
Alpha granule release and αIIbβ3 activation: Prior to stimulation, washed platelets were pre-incubated with a either FITC-conjugated P-selectin antibody or FITC-conjugated PAC-1, an antibody specific for the active conformation of αIIb3. […] Fluorescence intensity was measured by flow cytometry. Results are reported as mean fluorescence intensity.

[8] = test system: washed human platelets; test: PAR4-AP-induced calcium mobilization; assay type: cell-based; conditions: 200 μM PAR4-AP; increasing concentrations
Description: (§4) Blood was centrifuged at 200 g for 13 min at room temperature.

[9] = test system: FcγRIIa-stimulated platelets; test: FcγRIIa phosphorylation (immunoprecipitation, Western blot); assay type: cell-based, human; conditions: ML355 (20 μM); IV.3+GAM
Description: as §1
To investigate whether 12-LOX directly regulated FcγRIIa phosphorylation, FcγRIIa was immunoprecipitated from IV.3+GAM-stimulated platelets treated with ML355 or DMSO and immunoblotted for phosphorylation of FcγRIIa.
as §2, with “Due to inter-individual variability in anti-CD9 response, a range of anti-CD9 concentration (0.25-1 μg/ml) was used to achieve an aggregation of EC80. In studies using the 12-LOX inhibitor (ML355), washed platelets were incubated with either ML355 (20 μM), or DMSO (vehicle control) for 15 minutes prior to FcγRIIa stimulation.” left out

[10] = test system: FcγRIIa-stimulated platelets; test: Dense granule secretion (ATP release) after FcγRIIa stimulation; assay type: cell-based, human; conditions: compared with DMSO treated platelets
From the text: as §3
as §2, with “In studies using the 12-LOX inhibitor (ML355), washed platelets were incubated with either ML355 (20 μM), or DMSO (vehicle control) for 15 minutes prior to FcγRIIa stimulation.” left out
Dense granule secretion: ATP release was measured from washed platelets as surrogate for dense granule secretion. […] Platelets were stimulated with FcγRII antibody cross-linking under stirring conditions and fluorescence was measured in real-time using a lumi-aggregometer.

[11] = test system: FcγRIIa-stimulated platelets; test: PKC activation assay; assay type: cell-based, human
Description: as §2
PKC activation assay: Washed platelets were stimulated by FcγRIIa antibody cross-linking under stirring conditions (1100 rpm) in an aggregometer at 37° C. Reactions were stopped by the addition of 5X× Laemmli sample buffer at the indicated times. As a positive control platelets were treated with PMA ([…]), a direct PKC agonist, for one minute. […]

[12] = test system: washed human platelets; test: PAR4-AP-induced platelet aggregation; assay type: cell-based
Description: as §4

[13] = test system: FcγRIIa-stimulated platelets; test: Calcium mobilization after FcγRIIa cross-linking; assay type: cell-based, human; conditions: ML355 (20 μM); compared to DMSO treated platelets
Description: as §2
Calcium mobilization: Intracellular calcium release was measured as previously described. […] Platelets were stimulated by FcγRIIa antibody cross-linking and fluorescence intensity was measured in real-time by flow cytometry. Data is reported as the fold change in the fluorescence intensity comparing maximum fluorescence intensity relative to fluorescence intensity prior to platelet stimulation.

## COc1cccc(CNc2ccc(S(=O)(=O)Nc3nc4ccccc4s3)cc2)c1O [Compound 35, N-(benzo[d]thiazol-2-yl)-4-((2-hydroxy-3-methoxybenzyl)amino)benzenesulfonamide]
[1]
  permeability (1 × 10^−6 cm/s): 1.5 (A→B)^a 1 × 10^−6 cm/s
[2]; in the presence of NADPH
  Microsomal stability T1/2 (min): >300^a min
[2]; microsomes, read-out: microsomal stability T1/2
  half-life: > 5 h
[3]
  Syk phosphorylation: attenuation of Syk phosphorylation in the presence of ML355 was minor
[4]
  PLCγ2 phosphorylation: attenuated PLCy2 phosphorylation at 15 and 30 seconds
[5]
  AA/IONO-induced 12-HETE production in human islets: significant inhibition of AA/IONO-induced 12-HETE production
[6]
  half-life: 2.9 h
[7]
  αIIbβ3 activation: significant attenuated along multiple signaling steps
[8]
  PAR4-AP-induced calcium mobilization (in words): Calcium mobilization was decreased
[9]
  FcγRIIa phosphorylation: No difference in FcγRIIa phosphorylation
[10]
  ATP release (dense granule secretion): significant decrease in ATP release
[11]; ML355 (20 μM), 30 and 60 seconds, FcγRIIa cross-linking
  PKC activation: significant decrease in PKC activation
[11]; PMA, a direct PKC activator
  PKC activation by PMA: no difference in its ability to activate PKC
[12]
  PAR4-AP induced platelet aggregation (in words): significantly reduce PAR4-AP induced platelet aggregation
[12]; 10 μM, PAR4-AP
  platelet aggregation at 10 μM: did not inhibit platelet aggregation
[13]
  intracellular Ca2+ release: decrease in intracellular Ca^2+
